# Results taken from a melting point compilation (Tetko et al.; mined from patent text by program, amines drawn as free bases though some values may be those of a salt).
# Residues, ends and D or L forms follow the SMILES beside them. *: point of attachment. Cbz = O=C(OCc1ccccc1)*
row,Structure (SMILES),melting point [°C]
1,COC(=O)Cc1c(-c2ccccc2)nn(-c2ccccc2)c1-c1ccccc1,80.5 to 81.5
2,N#Cc1ccc(CN2CCN(c3cc(-c4ccccc4)c4ccc(=O)ccn34)CC2)cc1,196
3,CCN(CC)C(=O)CCc1nc(-c2ccccc2)nc2ccccc12,103
4,CCCCCCCCCCCC(=O)CC(=O)OC,29
5,COc1ccc(CNc2ccc(C(=O)O)cc2)cc1,208 to 210
6,CC(=O)Nc1nc(-c2ccc([N+](=O)[O-])cc2)c(C)[nH]1,230 to 235
7,O=[N+]([O-])c1cccc(/C=C/c2ccc3ccccc3n2)c1,145 to 147
8,OC/C=C/CC/C=C/CC/C=C/CO,37 to 38
9,Cn1c([N+](=O)[O-])cnc1-c1nc2ccccc2c(=O)[nH]1,256 to 260
10,NS(=O)(=O)c1cc2cc3c(cc2n1S(=O)(=O)c1ccccc1)OCO3,229 to 232
11,O=c1[nH]c2cc(Cl)c(Cl)cc2n1CCCN1CCN(C(c2ccccc2)c2ccccc2)CC1,214
12,Cc1cc2c(c3c1NC(=O)C(C)(C)C3)OC(C)(CBr)C2 (centres undefined),158 to 160
13,Cn1c2c(c3cccc(F)c31)C(=O)NCC2,242
14,COc1ccc(CC(C)=O)cc1S(=O)(=O)Cl,80 to 81
15,COC(=O)C1(O)CC(O[Si](C)(C)C(C)(C)C)C(O)C(O[Si](C)(C)C(C)(C)C)C1 (centres undefined),82 to 82.5
16,CCc1c(OC)nc2nc(C(=N)NO)cn2c1C,249 to 250
17,Cc1oc(-c2ccc(C(F)(F)F)cc2)nc1CO,98 to 99
18,CN(C=O)c1ccc(Cl)cc1C(=O)c1ccccc1,93.5 to 94.5
19,CSC1=CC2=CN(O)NN2C(Cl)=N1,256 to 257
20,CNCc1ccc2cc(OC)ccc2c1,96 to 104
21,CCCCCC(O)C#CCCCCCCC#Cc1ccc(O)c(O)c1 (centres undefined),46 to 48
22,Cc1cn(C)cc1-c1cc2nccnc2[nH]1,210
23,COc1ccccc1CCCNc1ccc(C(=O)O)cc1,155 to 157
24,CC1(C)C(C(=O)O)C1C(O)C(F)(Cl)Cl (centres undefined),142

row,Structure (SMILES),melting point [°C]
1,Cc1c(COc2cccc3c2CN(C2CCC(=O)NC2=O)C3=O)oc2ccccc12 (centres undefined),210 to 212
2,COc1ccc(OC)c2c(=O)cc(C(=O)O)sc12,210 to 212
3,Nc1c(-c2ccc(O)cc2)nnn1-c1ccc(C(F)(F)F)cc1Cl,161 to 162
4,COc1cc(-c2cc(C(F)(F)F)nn2-c2ccc(S(C)(=O)=O)c(F)c2)ccc1-c1cscn1,155 to 157
5,N=C(N)Nc1nc(C(=O)NCCCC(CC(=O)O)c2ccccc2)cs1 (racemic),230
6,CN(O)C(=O)NCCCCCCCOCc1ccccc1,69 to 70.5
7,Cc1ccc(-c2cc(CNC(CO)CO)c(=O)n(CC(C)C)n2)cc1,134 to 135
8,Cn1c(=O)n(CCCCI)c(=O)c2ccccc21,105 to 107
9,O=c1nc(-c2cccc(C(F)(F)F)c2)sc2ccccc12,115
10,Cc1ccc2ccc(C(=O)NCc3ccc(Cl)cc3)c(O)c2n1,95 to 98
11,CN(C)Cc1cc(CSCCNc2ncc([N+](=O)[O-])c(=O)[nH]2)cs1,150 to 153
12,Cn1nc(N)nc1NCCCOc1cccc(CNC2CCCCC2)c1,102 to 103
13,COc1ccc(S(=O)(=O)N(C)C)cc1C(=O)NCc1ccc(OCCN(C)C)cc1,99.5 to 100
14,Nc1c(OCc2ccccc2)cc(Br)cc1[N+](=O)[O-],90
15,CC1(C)c2cc(O)ccc2OC1CO (centres undefined),79 to 80
16,O=C(O)Cc1cc(=O)[nH]c2ccccc12,213 to 215
17,CC(C)(C)NCc1cc(Br)cc(Br)c1O,173 to 175
18,COC(=O)c1csc(-c2cc3ccccc3n2C)n1,124 to 127
19,C[C@]12C[C@H](c3ccc(OCCCCCl)cc3)C3=C4CCC(=O)C=C4CC[C@H]3[C@@H]1CCC2=O,194
20,COP1(=S)OCc2cc(C)cnc2O1 (centres undefined),74 to 75
21,O=C(O)c1ccc(C#Cc2ccccc2)cc1,224 to 225
22,OC1CCCCCC/C1=C\Br (centres undefined),144 to 145
23,Cc1cccc(SCC(=O)C23CC4CC(CC(C4)C2)C3)n1,116
24,CN(C)C1CC=C(c2c[nH]c3ccc(N)cc23)CC1 (centres undefined),63 to 65

row,Structure (SMILES),melting point [°C]
1,CCCc1cccc2c(/C=C(\C)C(=O)O)cc(OC)c(O)c12,67 to 68
2,CN1C(=O)C(N)C(c2ccccc2)=Nc2ccccc21 (centres undefined),178 to 179
3,CCOP(=O)(Cc1ccc(NC(=O)CCc2cnoc2-c2ccc(Cl)cc2)cc1)OCC,138 to 139
4,C=CC1CN(c2ncc(C(=O)N(CCCCC)c3cccc(C(F)(F)F)c3)c(N)n2)C(=O)N1 (centres undefined),135 to 137
5,Cc1cccc2nc(CSc3ncnc4[nH]cnc34)n(-c3ccccc3F)c(=O)c12,152
6,COc1ccc(S(=O)(=O)N2CCCC2c2ccc(F)cc2)cc1 (racemic),134
7,Clc1ccc2c(c1)CNc1ccccc1C2,132 to 135
8,NCc1cc(-c2ccccc2)no1,50
9,COC(=O)c1sc(C)c(C)c1OC,37 to 39
10,FC(F)(F)c1cc(-c2cc3ccccc3o2)c2cccc(C(F)(F)F)c2n1,129 to 130
11,CC(=O)NC[C@H]1CN(c2ccc(N3CCC(=C(C#N)c4ccccn4)CC3)c(F)c2)C(=O)O1,265 to 267
12,CCOC(=O)c1c(N2CCN(CCO)CC2)c2cc(Cl)ccc2[nH]c1=O,130 to 134
13,N#CCOc1ccc(-c2ccc(=O)n(Cc3ccc(Cl)cc3F)c2)cc1,160
14,COc1ccc(CNC(=O)c2cc3c(=O)n(C[C@H]4CC[C@H](C(=O)O)CC4)cnc3cn2)cc1,232 to 233
15,CCOC(=O)CC(=O)c1ccc(OCc2ccccc2)cc1C,59 to 60
16,O=C1N(Cc2cnccc2C(F)(F)F)c2ccccc2C12COc1cc3c(cc12)OCCO3 (centres undefined),131 to 132
17,COP(=O)(Cc1cc(C(C)(C)C)c(O)c(C(C)(C)C)c1)OC,155
18,COc1ccc(Cn2c(=O)[nH]c(=O)c3c2nc(C(C)(C)C)n3Cc2ccccc2)cc1,170 to 172
19,Cc1cc(N2N=CCNC2=O)cc(Cl)c1C(C#N)c1cnc(Cl)s1 (centres undefined),238 to 239
20,NC(=O)c1sc2nccc(N3CCCN(c4ccc(F)cc4)CC3)c2c1N,203 to 205
21,COC1CCN(S(=O)(=O)c2ccc([N+](=O)[O-])cc2C(F)(F)F)CC1,141 to 143
22,Cc1ccc(C(=O)c2[nH]c3cc(Cl)ccc3c2CC(=O)O)cc1,182 to 184

# Continued, values first:
row,melting point [°C],Structure (SMILES)
1,180 to 182,O=c1c2cnn(Cc3ccccc3)c2nc2n1CCS2
2,230,CN1C(=O)N(c2cc(Cl)nc(Cl)c2)C(=O)/C1=C\c1ccc(C#N)cc1
3,238 to 241,COC(=O)C(Cc1ccc(O)cc1)NC(=O)C(CO)NC(=O)C(Cc1c[nH]c2ccccc12)NC(=O)C(CCC(N)=O)NC(=O)OCc1ccccc1 (centres undefined) (Cbz-QWSY-OMe; configuration not given here)
4,79.5 to 80,C[C@H](CSC(=O)C1CCCCC1)C(=O)N1CSC[C@H]1C(=O)O
5,213 to 231,Nc1ccn(C2CCCCC2)c(=O)n1
6,200,COc1cc(C(=O)c2ncc3ccc(NC(=O)OC(C)(C)C)cn23)ccc1[N+](=O)[O-]
7,223 to 225,COc1cc(NC(=O)Nc2cccc3c2C2CC(=O)CCN2C3=O)nc2ccccc12 (centres undefined)
8,189 to 191,COc1cc2c(Nc3cc(CN4CCCC4)c(O)c(CN4CCCC4)c3)ncnc2c(OC)c1OC
9,123 to 124,CCCc1c(OCCCOc2ccc(Sc3ccccc3CC(=O)O)cc2)ccc(C(C)=O)c1O
10,157 to 165,CCOC(=O)c1cn(C2COC2)c2c(C)c(F)c(F)cc2c1=O
11,77 to 78,O=C(Nc1ccc(OCCN2CCOCC2)c2ccccc12)c1cccc(-c2cccnc2)c1
12,142 to 143,CC(O)C(NCc1ccc([N+](=O)[O-])cc1)C(=O)O (centres undefined)
13,192 to 193,Cc1c(C)c(N2CCN(c3ccnc(Cl)n3)CC2)c(C)c2c1OC(C)(C)C2
14,180 to 185,O=C1CCCN(C(=O)c2ccc([N+](=O)[O-])cc2Cl)c2ccsc21
15,160 to 165,CCCCc1nc(N)c(N)c(=O)[nH]1
16,172,O=C(O)CCCCN1C(=O)c2ccc([N+](=O)[O-])cc2C1=O
17,174 to 176,CCCCn1cnc2c(OC)nc(Nc3ccc(OCC)nc3)nc21

row,melting point [°C],Structure (SMILES)
1,151 to 152,Cc1cccc(-c2nc(-c3cccc(C)c3)nc(-c3cccc(C)c3)n2)c1
2,125 to 128,COc1cccc(CCS(=O)c2nc3cnccc3[nH]2)c1 (centres undefined)
3,156 to 158,CS(=O)(=O)c1ccc(-c2cnn(CC(F)(F)F)c(=O)c2Nc2cccc(F)c2)cc1
4,116 to 120,COC(=O)CC(=O)C[C@H]1NC(=O)[C@@H]1N1C(=O)c2ccccc2C1=O
5,152 to 154,N#CC1c2ccccc2-c2ccccc21
6,99 to 101,CCOC(=O)/C(C#N)=C/c1c(OC)cccc1OC
7,137 to 140,CNC(=NC#N)NCCSCc1cccc(NC(N)=NCC(F)(F)F)n1
8,257 to 258,COc1c(N2CCCC2)c(F)cc2c(=O)c(C(=O)O)cn(C3CC3)c12
9,156 to 157,COC(=NS(=O)(=O)c1ccccc1Cl)Nc1nc(C)nc(OC)n1
10,138 to 140,O=C(Nc1cccc([N+](=O)[O-])c1)C(=O)N1CCC(Cc2ccccc2)CC1
11,188 to 189,O=C(O)c1cc(SCc2ccccc2)c(-c2ccccc2)c([N+](=O)[O-])c1
12,> 250,N[C@H]1C[C@H]2[C@H](C(=O)O)[C@H]2[C@]1(N)C(=O)O
13,188 to 189,COc1ccc(OC)c2c1CCC(Nc1ccc(O)cc1)C2 (centres undefined)
14,101 to 102,COc1ccccc1OCCNCCCc1c[nH]c2ccccc12
15,263 to 264,O=c1nc(Nc2ccc(I)cc2)sc2ncccc12
16,118 to 119,CCOCc1nc2c(N)nc3cc(CCC(=O)N4CCOCC4)ccc3c2n1CC(C)(C)O
17,116 to 117,CCCOc1ccc(C(=O)CCC(=O)O)cc1
